In the supplement of paper PMC11061612:

Experiments:
Assay in all cases: Bliss excess, mean over the matrix (fraction); higher = more synergy
C32 (Melanoma) = test system: C32 (Melanoma)
Outline: (§1)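 After 24 hours at 37°C and 5% CO2 in 1536-well plates, cells in DMEM/F12 or RPMI plus 10% FBS received two-drug dose matrices for 72 hours. Viability came from CellTiter-Glo 2.0 luminescence and was scaled as inhibition, anchored at 0 by vehicle wells and at 1 by blank wells. Combination Emax is taken as the second-highest inhibition in the matrix, and Bliss excess as the observed combination effect less EA + EB − EA·EB, with EA and EB the single-agent effects.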

[1] = test system: CAL-85-1 (Breast Carcinoma)
Outline: as §1

[2] = test system: COR-L105 (Lung Adenocarcinoma)
Outline: as §1

[3] = test system: L-363 (Plasma Cell Myeloma)
Outline: as §1

MG-63 (Osteosarcoma) = test system: MG-63 (Osteosarcoma)
Outline: as §1

[4] = test system: NCI-H1435 (Non-Small Cell Lung Carcinoma)
Outline: as §1

[5] = test system: NCI-H2009 (Lung Adenocarcinoma)
Outline: as §1

NCI-H2452 (Mesothelioma) = test system: NCI-H2452 (Mesothelioma)
Outline: as §1

[6] = test system: NCI-H835 (Other Solid Carcinomas)
Outline: as §1

[7] = test system: NTERA-2-cl-D1 (Other Solid Carcinomas)
Outline: as §1

[8] = test system: SBC-3 (Small Cell Lung Carcinoma)
Outline: as §1

[9] = test system: SW1463 (Colorectal Carcinoma)
Outline: as §1

[10] = test system: ATN-1 (T-Lymphoblastic Leukemia)
Outline: as §1

[11] = test system: BT-474 (Breast Carcinoma)
Outline: as §1

[12] = test system: C2BBe1 (Colorectal Carcinoma)
Outline: as §1

[13] = test system: IGROV-1 (Ovarian Carcinoma)
Outline: as §1

[14] = test system: JURL-MK1 (Chronic Myelogenous Leukemia)
Outline: as §1

[15] = test system: NCI-H1944 (Lung Adenocarcinoma)
Outline: as §1

[16] = test system: OCI-M1 (Acute Myeloid Leukemia)
Outline: as §1

[17] = test system: TK (B-Cell Non-Hodgkin's Lymphoma)
Outline: as §1

Structure (SMILES) | Bliss excess (C32 (Melanoma)) | Bliss excess [1] | Bliss excess [2] | Bliss excess [3] | Bliss excess (MG-63 (Osteosarcoma)) | Bliss excess [4] | Bliss excess [5] | Bliss excess (NCI-H2452 (Mesothelioma)) | Bliss excess [6] | Bliss excess [7] | Bliss excess [8] | Bliss excess [9] | Bliss excess [10] | Bliss excess [11] | Bliss excess [12] | Bliss excess [13] | Bliss excess [14] | Bliss excess [15] | Bliss excess [16] | Bliss excess [17]
C=CCn1c(=O)c2cnc(Nc3ccc(N4CCN(C)CC4)cc3)nc2n1-c1cccc(C(C)(C)O)n1 [AZD1775] + CCc1c2c(nc3ccc(O)cc13)-c1cc3c(c(=O)n1C2)COC(=O)[C@]3(O)CC [SN-38] (first compound max 1 µM, partner max 0.3 µM) | -0.0375 | -0.0337 | -0.0262 | 0.0273 | -0.0239 | 0.0158 | 0.0769 | -0.0145 | -0.0442 | 0.0011 | -0.0297 | -0.0287 | – | – | – | – | – | – | – | –
Cc1c2c(nn1C)CSCc1cc(n(C)n1)CSc1cc(c3ccccc3c1)OCCCc1c(C(=O)O)n(C)c3c-2c(Cl)ccc13 [AZD5991] + CS(=O)(=O)CCNCc1ccc(-c2ccc3ncnc(Nc4ccc(OCc5cccc(F)c5)c(Cl)c4)c3c2)o1 [Lapatinib] (first compound max 1 µM, 7x7, partner max 10 µM) | -0.0014 | -0.0213 | -0.0414 | 0.0132 | -0.0352 | -0.0063 | -0.0136 | -0.0576 | 0.019 | -0.0334 | -0.0235 | 0.0331 | – | – | – | – | – | – | – | –
O=C(c1cc(Cc2n[nH]c(=O)c3ccccc23)ccc1F)N1CCN(C(=O)C2CC2)CC1 [Olaparib] + CN(CC[C@H](CSC1=CC=CC=C1)NC2=C(C=C(C=C2)S(=O)(=O)NC(=O)C3=CC=C(C=C3)N4CCC(CC4)[C@H](C5=CC=CC=C5C6=CC=C(C=C6)Cl)O)S(=O)(=O)C(F)(F)F)CCO [AZD4320] (first compound max 10 µM, 7x7, partner max 1 µM) | -0.0529 | 0.0221 | -0.049 | 0.0718 | -0.0185 | -0.0086 | -0.0603 | -0.0697 | -0.043 | 0.0258 | 0.0197 | 0.0073 | – | – | – | – | – | – | – | –
CN(CCO)CC[C@H](CSc1ccccc1)Nc1ccc(S(=O)(=O)NC(=O)c2ccc(N3CCC([C@@H](O)c4ccccc4-c4ccc(Cl)cc4)CC3)cc2)cc1S(=O)(=O)C(F)(F)F [AZD4320] + CS(=O)(=O)CCNCc1ccc(-c2ccc3ncnc(Nc4ccc(OCc5cccc(F)c5)c(Cl)c4)c3c2)o1 [Lapatinib] (first compound max 1 µM, 7x7, partner max 10 µM) | -0.0269 | 0.0241 | -0.0212 | 0.0082 | -0.0176 | 0.0765 | -0.0017 | -0.019 | 0.0449 | -0.026 | 0.052 | 0.105 | – | – | – | – | – | – | – | –
Cc1c2c(nn1C)CSCc1cc(n(C)n1)CSc1cc(c3ccccc3c1)OCCCc1c(C(=O)O)n(C)c3c-2c(Cl)ccc13 [AZD5991] + CC(=O)O[C@H]1C(=O)[C@@]2(C)[C@H]([C@H](OC(=O)c3ccccc3)[C@]3(O)C[C@H](OC(=O)[C@H](O)[C@@H](NC(=O)c4ccccc4)c4ccccc4)C(C)=C1C3(C)C)[C@]1(OC(C)=O)CO[C@@H]1C[C@@H]2O [Paclitaxel] (first compound max 1 µM, 7x7, partner max 3 µM) | 0.0017 | -0.0082 | -0.0367 | -0.0043 | -0.0715 | 0.0254 | 0.0027 | 0.0378 | 0.0252 | 0.111 | -0.0404 | 0.0763 | – | – | – | – | – | – | – | –
CC1(C)CCC(CN2CCN(c3ccc(C(=O)NS(=O)(=O)c4ccc(NCC5CCOCC5)c([N+](=O)[O-])c4)c(Oc4cnc5[nH]ccc5c4)c3)CC2)=C(c2ccc(Cl)cc2)C1 [Venetoclax] + CN(C)CCCOc1ccc(-c2ccc3ncc4c(c3c2)n(C2CCOCC2)c(=O)n4C)cn1 [AZD0156] (first compound max 1 µM, 7x7, partner max 1 µM) | -0.015 | -0.0476 | -0.0408 | 0.0188 | 0.0063 | -0.0029 | -0.0283 | -0.0149 | – | -0.0372 | -0.0369 | -0.045 | 0.0437 | -0.0072 | -0.0333 | -0.0236 | -0.0151 | -0.0052 | -0.0299 | -0.0227
Cc1c2c(nn1C)CSCc1cc(n(C)n1)CSc1cc(c3ccccc3c1)OCCCc1c(C(=O)O)n(C)c3c-2c(Cl)ccc13 [AZD5991] + CCN(CCO)CCCOc1ccc2c(Nc3cc(CC(=O)Nc4cccc(F)c4)[nH]n3)ncnc2c1 [AZD2811] (first compound max 1 µM, 7x7, partner max 1 µM) | 0.05 | -0.0011 | -0.0986 | 0.0523 | 0.0186 | 0.0411 | 0.071 | -0.0486 | – | 0.0704 | 0.0082 | -0.0905 | -0.0413 | 0.0314 | -0.0093 | -0.0053 | 0.098 | 0.0457 | 0.068 | 0.0228
CN(C)CCCOc1ccc(-c2ccc3ncc4c(c3c2)n(C2CCOCC2)c(=O)n4C)cn1 [AZD0156] + CCN(CCO)CCCOc1ccc2c(Nc3cc(CC(=O)Nc4cccc(F)c4)[nH]n3)ncnc2c1 [AZD2811] (first compound max 1 µM, 7x7, partner max 1 µM) | -0.0213 | -0.0409 | -0.0457 | 0.0096 | -0.0079 | -0.0219 | -0.0224 | -0.042 | – | 0.0219 | -0.0422 | -0.0322 | -0.0742 | -0.0423 | -0.0183 | -0.0527 | 0.0538 | -0.0077 | 0.042 | 0.0495
CN(CCO)CC[C@H](CSc1ccccc1)Nc1ccc(S(=O)(=O)NC(=O)c2ccc(N3CCC([C@@H](O)c4ccccc4-c4ccc(Cl)cc4)CC3)cc2)cc1S(=O)(=O)C(F)(F)F [AZD4320] + CN(C)CCCOc1ccc(-c2ccc3ncc4c(c3c2)n(C2CCOCC2)c(=O)n4C)cn1 [AZD0156] (first compound max 1 µM, 7x7, partner max 1 µM) | -0.0182 | -0.0472 | -0.031 | -0.0005 | -0.0816 | -0.0269 | -0.0424 | -0.0287 | – | -0.0692 | -0.0809 | -0.06 | -0.0231 | -0.057 | -0.0443 | -0.0848 | -0.0368 | -0.0289 | -0.0094 | 0.0083
CC1(C)CCC(CN2CCN(c3ccc(C(=O)NS(=O)(=O)c4ccc(NCC5CCOCC5)c([N+](=O)[O-])c4)c(Oc4cnc5[nH]ccc5c4)c3)CC2)=C(c2ccc(Cl)cc2)C1 [Venetoclax] + C1CN(CCC1(C(=O)N[C@@H](CCO)C2=CC=C(C=C2)Cl)N)C3=NC=NC4=C3C=CN4 [Capivasertib] (first compound max 1 µM, 7x7, partner max 3 µM) | -0.0483 | -0.031 | -0.0664 | 0.0096 | -0.0862 | 0.0014 | -0.0299 | -0.0318 | – | -0.0574 | -0.0457 | -0.0424 | 0.0132 | -0.0376 | -0.0585 | -0.0182 | -0.0259 | -0.0343 | -0.0441 | -0.0111
CC1(C)CCC(CN2CCN(c3ccc(C(=O)NS(=O)(=O)c4ccc(NCC5CCOCC5)c([N+](=O)[O-])c4)c(Oc4cnc5[nH]ccc5c4)c3)CC2)=C(c2ccc(Cl)cc2)C1 [Venetoclax] + C[C@@H](Nc1cc(F)cc(F)c1)c1cc(C(=O)N(C)C)cc2c(=O)cc(N3CCOCC3)oc12 [AZD8186] (first compound max 1 µM, 7x7, partner max 3 µM) | -0.0207 | -0.055 | -0.0359 | -0.001 | -0.0636 | 0.0012 | -0.0281 | 0.0255 | – | -0.0199 | -0.034 | -0.0393 | 0.0347 | -0.055 | -0.135 | 0.0084 | -0.0201 | -0.034 | -0.0158 | -0.0454
CC(=O)Nc1cccc(-n2c(=O)n(C3CC3)c(=O)c3c(Nc4ccc(I)cc4F)n(C)c(=O)c(C)c32)c1 [Trametinib] + Cc1nc(-c2cn3c(n2)-c2ccc(-c4cnn(C(C)(C)C(N)=O)c4)cc2OCC3)n(C(C)C)n1 [Taselisib] (first compound max 1 µM, 7x7, partner max 10 µM) | 0.0958 | 0.213 | 0.0409 | 0.241 | 0.0237 | 0.107 | 0.151 | 0.101 | – | 0.022 | 0.0858 | 0.04 | -0.0503 | 0.0002 | 0.0464 | -0.0339 | -0.0107 | 0.175 | 0.0652 | -0.0052
